Experimental data as given in PubChem BioAssay (NCI).
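48-hour exposure; five concentrations; linearly interpolated endpoints. GI50 = concentration required for 50% inhibition of growth. TGI is the concentration that stops growth completely.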

Experiments:
Test in all cases: NCI anticancer screen, dose series, 48 h
TK-10 renal = system: TK-10 renal
K-562 leukemia = system: K-562 leukemia
IGROV1 ovarian = system: IGROV1 ovarian
786-0 renal = system: 786-0 renal
M14 melanoma = system: M14 melanoma
SF-539 CNS = system: SF-539 CNS
HOP-62 NSCLC = system: HOP-62 NSCLC
MOLT-4 leukemia = system: MOLT-4 leukemia
KM12 colon = system: KM12 colon
SK-MEL-2 melanoma = system: SK-MEL-2 melanoma

CCCNC(=O)OCc1c(COC(=O)NCCC)c(-c2ccc(Cl)c(Cl)c2)n2c1CCC2
TGI (TK-10 renal): 18.9 µM
TGI (K-562 leukemia): 26.6 µM
TGI (IGROV1 ovarian): 5.54 µM
TGI (786-0 renal): 11.4 µM
TGI (M14 melanoma): 24.4 µM
TGI (SF-539 CNS): 11.3 µM
TGI (HOP-62 NSCLC): 22.3 µM
TGI (MOLT-4 leukemia): 87.7 µM
TGI (KM12 colon): 28.5 µM

O=C(O)/C=C/C(=O)Nc1ncn[nH]1
TGI (TK-10 renal): > 100 µM
TGI (SK-MEL-2 melanoma): > 100 µM
TGI (IGROV1 ovarian): > 100 µM
TGI (786-0 renal): > 100 µM
TGI (M14 melanoma): > 100 µM
TGI (SF-539 CNS): > 100 µM
TGI (HOP-62 NSCLC): > 100 µM
TGI (MOLT-4 leukemia): > 100 µM
TGI (KM12 colon): > 100 µM

N#Cc1nc(-c2ccc(F)cc2)oc1S(=O)(=O)N1CCOCC1
GI50 (TK-10 renal): 1.75 µM
TGI (TK-10 renal): 3.26 µM
GI50 (SK-MEL-2 melanoma): 13.4 µM
TGI (SK-MEL-2 melanoma): 27.5 µM
GI50 (K-562 leukemia): 1.7 µM
TGI (K-562 leukemia): 10.9 µM
GI50 (IGROV1 ovarian): 3.68 µM
TGI (IGROV1 ovarian): 14.6 µM
GI50 (786-0 renal): 3.34 µM
TGI (786-0 renal): 11.7 µM
GI50 (SF-539 CNS): 1.88 µM
TGI (SF-539 CNS): 4.02 µM
GI50 (HOP-62 NSCLC): 10.8 µM
TGI (HOP-62 NSCLC): 37.9 µM
GI50 (MOLT-4 leukemia): 2.02 µM
TGI (MOLT-4 leukemia): 5.49 µM
GI50 (KM12 colon): 12 µM
TGI (KM12 colon): 26.3 µM

COc1ccc(N=Cc2cc(OC)c(OC)c(OC)c2)cc1
TGI (TK-10 renal): > 100 µM
TGI (SK-MEL-2 melanoma): > 100 µM
TGI (K-562 leukemia): > 100 µM
TGI (IGROV1 ovarian): > 100 µM
TGI (786-0 renal): > 100 µM
TGI (SF-539 CNS): > 100 µM
TGI (HOP-62 NSCLC): > 100 µM
TGI (MOLT-4 leukemia): > 100 µM
TGI (KM12 colon): > 100 µM

Fc1ccc(-c2nn(-c3ccccc3)cc2-c2nc3ccccc3o2)cc1
GI50 (SK-MEL-2 melanoma): 9 µM
TGI (SK-MEL-2 melanoma): 28.3 µM
GI50 (K-562 leukemia): 1.25 µM
TGI (K-562 leukemia): > 100 µM
GI50 (IGROV1 ovarian): 3.94 µM
TGI (IGROV1 ovarian): 39.3 µM
GI50 (786-0 renal): 15 µM
TGI (786-0 renal): > 100 µM
GI50 (M14 melanoma): 3.91 µM
TGI (M14 melanoma): 15.1 µM
GI50 (SF-539 CNS): 8.88 µM
TGI (SF-539 CNS): 28.7 µM
GI50 (HOP-62 NSCLC): 4.95 µM
TGI (HOP-62 NSCLC): 33.4 µM
GI50 (MOLT-4 leukemia): 3.62 µM
TGI (MOLT-4 leukemia): > 100 µM
GI50 (KM12 colon): 3.25 µM
TGI (KM12 colon): > 100 µM

COc1nc2c(cc1S(=O)(=O)c1ccccc1)CCc1c-2cnn1-c1ccccc1Cl
GI50 (SK-MEL-2 melanoma): 71.7 µM
TGI (SK-MEL-2 melanoma): > 100 µM
GI50 (K-562 leukemia): 5.23 µM
TGI (K-562 leukemia): > 100 µM
GI50 (IGROV1 ovarian): > 100 µM
TGI (IGROV1 ovarian): > 100 µM
GI50 (786-0 renal): 7.28 µM
TGI (786-0 renal): > 100 µM
GI50 (M14 melanoma): > 100 µM
TGI (M14 melanoma): > 100 µM
GI50 (SF-539 CNS): > 100 µM
TGI (SF-539 CNS): > 100 µM
GI50 (HOP-62 NSCLC): > 100 µM
TGI (HOP-62 NSCLC): > 100 µM
GI50 (MOLT-4 leukemia): 4.76 µM
TGI (MOLT-4 leukemia): > 100 µM
GI50 (KM12 colon): 4.49 µM
TGI (KM12 colon): > 100 µM

COc1ccc(CN2CCCC(C(=O)c3ccc(C(F)(F)F)cc3)C2)c(O)c1 (stereo unspecified)
GI50 (TK-10 renal): 31.3 µM
TGI (TK-10 renal): 88.7 µM
GI50 (SK-MEL-2 melanoma): 27.5 µM
TGI (SK-MEL-2 melanoma): 65.8 µM
GI50 (K-562 leukemia): 19.3 µM
TGI (K-562 leukemia): 93.3 µM
GI50 (IGROV1 ovarian): 52.6 µM
TGI (IGROV1 ovarian): > 100 µM
GI50 (786-0 renal): 17.3 µM
TGI (786-0 renal): 40.4 µM
GI50 (SF-539 CNS): 18.8 µM
TGI (SF-539 CNS): 46.1 µM
GI50 (HOP-62 NSCLC): 29.1 µM
TGI (HOP-62 NSCLC): > 100 µM
GI50 (MOLT-4 leukemia): 27.5 µM
TGI (MOLT-4 leukemia): > 100 µM
GI50 (KM12 colon): 30.5 µM
TGI (KM12 colon): 86 µM

O=S(=O)(O)C(O)/C=C/c1ccccc1 (stereo unspecified)
TGI (TK-10 renal): > 100 µM
TGI (SK-MEL-2 melanoma): > 100 µM
TGI (K-562 leukemia): > 100 µM
TGI (IGROV1 ovarian): > 100 µM
TGI (786-0 renal): > 100 µM
TGI (M14 melanoma): > 100 µM
TGI (HOP-62 NSCLC): > 100 µM
TGI (MOLT-4 leukemia): > 100 µM
TGI (KM12 colon): > 100 µM

O=C(Cc1ccc(/C=C/C(=O)c2ncc[nH]2)cc1)Nc1ccc(Cl)cc1
GI50 (TK-10 renal): 5.41 µM
TGI (TK-10 renal): 13.9 µM
GI50 (SK-MEL-2 melanoma): 5.53 µM
TGI (SK-MEL-2 melanoma): 14.6 µM
GI50 (IGROV1 ovarian): 3.59 µM
TGI (IGROV1 ovarian): 15.4 µM
GI50 (786-0 renal): 1.13 µM
TGI (786-0 renal): 4.77 µM
GI50 (SF-539 CNS): 3.33 µM
TGI (SF-539 CNS): 7.03 µM
GI50 (HOP-62 NSCLC): 3.19 µM
TGI (HOP-62 NSCLC): 8.78 µM
GI50 (MOLT-4 leukemia): 1.8 µM
TGI (MOLT-4 leukemia): 24.2 µM
GI50 (KM12 colon): 1.3 µM
TGI (KM12 colon): 5.23 µM

S=C1NCCN1C1=Nc2ccccc2CO1
GI50 (TK-10 renal): > 100 µM
TGI (TK-10 renal): > 100 µM
GI50 (K-562 leukemia): > 100 µM
TGI (K-562 leukemia): > 100 µM
GI50 (IGROV1 ovarian): 74 µM
TGI (IGROV1 ovarian): > 100 µM
GI50 (786-0 renal): > 100 µM
TGI (786-0 renal): > 100 µM
GI50 (M14 melanoma): > 100 µM
TGI (M14 melanoma): > 100 µM
GI50 (SF-539 CNS): > 100 µM
TGI (SF-539 CNS): > 100 µM
GI50 (HOP-62 NSCLC): > 100 µM
TGI (HOP-62 NSCLC): > 100 µM
GI50 (MOLT-4 leukemia): > 100 µM
TGI (MOLT-4 leukemia): > 100 µM
GI50 (KM12 colon): > 100 µM
TGI (KM12 colon): > 100 µM

O=C(/C=C(\[O-])c1ccccc1)CCCCCCC(=O)/C=C(\[O-])c1ccccc1.O=C(/C=C(\[O-])c1ccccc1)CCCCCCC(=O)/C=C(\[O-])c1ccccc1.O=C(/C=C(\[O-])c1ccccc1)CCCCCCC(=O)/C=C(\[O-])c1ccccc1.[La+3].[La+3]
GI50 (TK-10 renal): > 50 µM
TGI (TK-10 renal): > 50 µM
GI50 (SK-MEL-2 melanoma): > 50 µM
TGI (SK-MEL-2 melanoma): > 50 µM
GI50 (K-562 leukemia): > 50 µM
TGI (K-562 leukemia): > 50 µM
GI50 (IGROV1 ovarian): > 50 µM
TGI (IGROV1 ovarian): > 50 µM
GI50 (786-0 renal): > 50 µM
TGI (786-0 renal): > 50 µM
GI50 (M14 melanoma): > 50 µM
TGI (M14 melanoma): > 50 µM
GI50 (HOP-62 NSCLC): > 50 µM
TGI (HOP-62 NSCLC): > 50 µM
GI50 (MOLT-4 leukemia): > 50 µM
TGI (MOLT-4 leukemia): > 50 µM

COc1cc2c(cc1O)[C@H](Cc1ccc(Oc3cc(C[C@H]4c5cc(OC)c(OC)cc5CCN4C)ccc3OC)cc1)NCC2
TGI (SK-MEL-2 melanoma): 32.1 µM
TGI (K-562 leukemia): 19.1 µM
TGI (IGROV1 ovarian): 33 µM
TGI (786-0 renal): 25.2 µM
TGI (M14 melanoma): 3.56 µM
TGI (SF-539 CNS): 22.8 µM
TGI (MOLT-4 leukemia): 25.5 µM
TGI (KM12 colon): 25.7 µM
